# From patent US10183039B2, “Methods for the production of collagen IV” (Vanderbilt University, priority 2013, dated 2019)
# T1: collagen IV NC1 hexamer (Mus musculus, UniProt P02463+P08122)
# T1 sequence (P02463 1445-1669 limits assumed): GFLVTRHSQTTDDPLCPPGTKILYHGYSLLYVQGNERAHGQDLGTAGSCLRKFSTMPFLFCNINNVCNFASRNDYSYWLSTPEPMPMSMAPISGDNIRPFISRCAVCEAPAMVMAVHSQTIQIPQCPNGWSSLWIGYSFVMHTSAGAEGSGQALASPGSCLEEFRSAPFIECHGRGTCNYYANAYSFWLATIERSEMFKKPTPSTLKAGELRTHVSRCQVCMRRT
# T1 sequence (P08122 1484-1707 limits assumed): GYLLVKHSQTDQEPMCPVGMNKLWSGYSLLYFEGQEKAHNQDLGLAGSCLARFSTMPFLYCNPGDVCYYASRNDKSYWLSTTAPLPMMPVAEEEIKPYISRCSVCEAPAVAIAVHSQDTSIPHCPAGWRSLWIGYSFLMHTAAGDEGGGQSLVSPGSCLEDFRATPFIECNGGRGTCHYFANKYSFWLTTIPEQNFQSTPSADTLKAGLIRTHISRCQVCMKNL
# Tests used:
# [1] = target: T1, collagen IV NC1 hexamer; test: Hypohalous acid oxidation of purified uncrosslinked NC1 hexamer; conditions: for crosslinked dimeric subunits (percentage of dimeric subunit): 500 nM NC1 hexamer, 5 μM hypohalous acid, 30 min at 37° C. (FIG. 4A)
# Description: (FIG. 4A) Five hundred nanomolar collagen IV NC1 hexamer (3 μM potential crosslinks) was incubated alone (control) or with 5 μM hypochlorous (HOCl) or hypobromous acid (HOBr) for 30 min at 37° C. […] (FIGS. 4B-D) 16 nM myeloperoxidase (MPO) (FIG. 4B), eosinophil peroxidase (EPO) (FIG. 4C) or lactoperoxidase (LPO) (FIG. 4D) were reacted with 500 nM NC1 hexamer (3 μM potential crosslinks) for varying time points in 1×PBS with or without 10 μM H2O2. In the case of LPO, all reactions proceeded for 60 min. Collagen IV-sulfilimine crosslink content was visualized after SDS-PAGE and Coomassie blue staining of the reactions. Each gel is representative of three independent experiments. PHG, phloroglucinol; MW, molecular weight.
# FIGS. 9A-D. Chemical mechanism of sulfilimine formation within the NC1 hexamer. (FIG. 9A) Purified uncrosslinked NC1 hexamer (5 μM) was reacted for 5 minutes at 37° with the indicated amounts of hypohalous acids and analyzed by SDS-PAGE. […] Values represent mean±S.D. (n=3). (FIG. 7B) Uncrosslinked NC1 hexamer (1.3 μM) in Br-Free PBS was preoxidzed with indicated amounts of HOCl for 1 min at 37 C, followed by post-oxidation with the addition of 8 mol eq. HOBr (or HOCl as a control) which was reacted for an additional minute at 37° C., then quenched with 20 mM methionine. Gel is representative of two experiments (FIG. 9C) XIC analysis of the residual monomeric NC1 subunit following HOCl oxidation (10 mol eq) compared to input NC1 monomer after SDS-PAGE and in-gel trypsin digestion. ^16O addition to the methionine residues was confirmed by MS3 analysis. (FIG. 9D) Met93 oxidation pathway consistent with experimental data and the resultant enthalphic landscape for S═N bond formation within the NC1 hexamer.
# (FIG. 15) Fifty micromolar of hypohalous oxidants were added to 5 μM uncrosslinked NC1 domains, and reacted for 5 minutes at 37° C. before quenching by adding L-methionine to 1 mM final concentration. […] Experiments were run in triplicate and analyzed by 12% non-reducing SDS-PAGE and ImageJ.
# The efficiency of HOBr as a reagent was compared to other hypohalous acids, during a 5′ reaction with uncrosslinked hexamers containing 5 μM NC1 domains.
# The inventors therefore tested the molar efficiency of oxidation of purified uncrosslinked NC1 hexamer with HOCl and HOBr (FIG. 9A). […] To test this, they pretreated uncrosslinked NC1 hexamer with varying concentrations of HOCl, then treated with HOBr. […] As an independent approach to testing the dead-end sulfoxide hypothesis, the inventors pretreated NC1 hexamer with escalating levels of H2O2, a reagent known to generate methionine sulfoxides (Liang et al., 2012). […] They next decided to directly visualize the peptide containing Met93, the S donor of the S═N bond, within the residual monomeric NC1 fraction after HOCl oxidation and compare its oxidation status to untreated NC1 hexamer.
# [2] = HOBr versus HOCl, methionine to dehydromethionine; cited from earlier work
# [3] = test system: collagen IV NC1 hexamer; test: Purified peroxidases reacted with uncrosslinked NC1 hexamer and H2O2; type: biochemical, mouse; conditions: 16 nM enzyme, 500 nM NC1 hexamer, 10 μM H2O2, 1×PBS
# Description: (§1) (FIG. 3A) SDS-PAGE of reactions consisting of 16 nM purified human peroxidasin (PXDN), 500 nM monomeric NC1 hexamer (3 μM potential crosslinks) and 10 μM H2O2 in 1×PBS. Control reactions without H2O2 or in the presence of the peroxidase inhibitor phloroglucinol (PHG; 50 μM) were also conducted. D represents crosslinked dimeric NC1 subunits, and M denotes uncrosslinked monomeric subunits. MW, molecular weight. (FIG. 3B) Coomassie blue-stained gel after SDS-PAGE of collagen IVNC1 hexamer is shown to illustrate relative amounts of sulfilimine-crosslinked dimeric (D) and uncrosslinked monomeric (M) subunits after incubation of uncrosslinked PFHR-9 basement membranes in varying buffer halide concentrations (Br— or Cl— as K+ salt) with or without 1 mM H2O2. (FIG. 3C) PXDN-mediated hypohalous acid (HOX) production expressed as nmol hypohalous acid generated per nmol enzyme per min, measured in 1×PBS plus 100 μM NaBr. Values represent mean±s.e.m. (n=3). (FIG. 3D) HOCl production measured directly in 1×PBS without added Br—. Values denote mean±s.e.m. (n=4). […] (FIG. 3E) HOX production, measured in nmol HOX generated per nmol enzyme per min for myeloperoxidase (MPO), eosinophil peroxidase (EPO) or LPO in 1×PBS plus 100 μM NaBr. Values represent mean±s.e.m. (n=3).
# PHG, phloroglucinol; MW, molecular weight.
# If peroxidasin uses hypohalous acids as intermediates to form sulfilimine bonds, these intermediates should recapitulate the reaction when directly added to purified, uncrosslinked collagen IV NC1 hexamer. […] Alternatively, other peroxidasesis provided to form reactive hypohalous acids.
# [4] = Peroxidase activity of media from transfected cells (tetramethylbenzidine colorimetric assay); type: biochemical; conditions: media of transiently transfected HEK293T cells
# Description: FIGS. 5A-D—Peroxidasin uniquely crosslinks native collagen IV networks. (FIG. 5A) Experimental design of ‘overlay’ experiments. PFHR-9 cells were grown in the presence of phloroglucinol (PHG; 50 μM) to deposit uncrosslinked collagen IV (Col IV) networks. The cells were then removed, and the basement membrane was extracted with 4 M guanidine (Gdn) to inactivate endogenous peroxidasin. Cells stably transfected with human peroxidasin (PXDN) or untransfected HEK293 cells (WT HEK) were plated on top of the PFHR9 basement membrane, which was subsequently analyzed for collagen IV crosslink content. (FIG. 5B) Collagen IV-sulfilimine bond formation in the indicated experimental conditions as shown by stained SDS-PAGE gel. Two (WT HEK cells) or three (PXDN, with or without PHG) out of five independent experiments are shown. MW, molecular weight. (FIG. 5C) Coomassie blue-stained gel of collagen IVNC1 hexamers isolated from uncrosslinked PFHR-9 basement membrane overlaid with HEK293T cells transiently transfected with human peroxidasin cDNA, mouse myeloperoxidase cDNA (MPO), mouse lactoperoxidase cDNA (LPO) or empty vector (Mock). (FIG. 5D) Media from PXDN, MPO, LPO and mock-transfected cells were assayed for peroxidase activity using a tetramethylbenzidine-based colorimetric assay. Activity was expressed relative to peroxidasin (A650 of given peroxidase divided by A650 for peroxidasin). […]
# [5] = Hypohalous acid production by peroxidases (taurine haloamine trapping); type: biochemical; conditions: 1×PBS plus 100 μM NaBr or without added Br—
# Description: as §1
# Hypohalous acids were trapped as stable taurine haloamines, which oxidize tetramethylbenzidine to yield a colorimetric measure of hypohalous acid concentration and production (Dypbukt et al., 2005).
# Animal heme peroxidases, such as peroxidasin, myeloperoxidase, eosinophil peroxidase and lactoperoxidase, catalyze oxidative reactions using distinct halogenation and peroxidase cycles (Obinger, 2006). Both begin with hydrogen peroxide oxidation of the prosthetic heme iron to form an intermediate denoted compound I (Obinger, 2006). Compound I may oxidize halides into their respective hypohalous acids (or related oxidants in equilibrium), which may directly or indirectly halogenate susceptible moieties. Alternatively, compound I undergoes sequential reduction to form single electron-free radicals of energetically favorable substrates in the peroxidase cycle. Both pathways eventually regenerate reduced, native enzyme (Obinger, 2006). To determine whether peroxidasin forms sulfilimine bonds using a halogenation cycle, the inventors first tested whether peroxidasin crosslinks collagen IV in the absence of halides.
Molecule,crosslinked dimeric subunits (percentage of dimeric subunit) [1],crosslinked dimeric subunits (percentage of dimeric subunit) ([1]; listed as hypobromous acid),"dimer formation, molar efficiency of oxidation ([1]; 5 μM NC1 hexamer, 5 minutes at 37° (FIG. 9A))","efficiency versus other hypohalous acids in forming sulfilimine bonds ([1]; 5 min reaction, 5 μM NC1 domains)","S═N bond formation as share of total Met93 oxidized ([1]; oxidation event 1 (OE1), S—Cl or S—Br halosulfonium intermediate)",effectiveness at forming a sulfilimine bond [2],formation of sulfilimine crosslinks in NC1 hexamer [3],enzymatic activity relative to peroxidasin [4],hypohalous acid formation [5]
"OBr [HOBr, hypobromous acid]",increased significantly,yielded crosslinked dimeric subunits,efficiently formed dimers even at parity with NC1 concentrations,superior to all other examined reagents,56.1%,approximately twice as effective as HOCl,,,
"myeloperoxidase: animal heme peroxidase used as comparator (protein, UniProt P05164 165-745, looked up) Myeloperoxidase: VTCPEQDKYRTITGMCNNRRSPTLGASNRAFVRWLPAEYEDGFSLPYGWTPGVKRNGFPVALARAVSNEIVRFPTDQLTPDQERSLMFMQWGQLLDHDLDFTPEPAARASFVTGVNCETSCVQQPPCFPLKIPPNDPRIKNQADCIPFFRSCPACPGSNITIRNQINALTSFVDASMVYGSEEPLARNLRNMSNQLGLLAVNQRFQDNGRALLPFDNLHDDPCLLTNRSARIPCFLAGDTRSSEMPELTSMHTLLLREHNRLATELKSLNPRWDGERLYQEARKIVGAMVQIITYRDYLPLVLGPTAMRKYLPTYRSYNDSVDPRIANVFTNAFRYGHTLIQPFMFRLDNRYQPMEPNPRVPLSRVFFASWRVVLEGGIDPILRGLMATPAKLNRQNQIAVDEIRERLFEQVMRIGLDLPALNMQRSRDHGLPGYNAWRRFCGLPQPETVGQLGTVLRNLKLARKLMEQYGTPNNIDIWMGGVSEPLKRKGRVGPLLACIIGTQFRKLRDGDRFWWENEGVFSMQQRQALAQISLPRIICDNTGITTVSKNNIFMSNSYPRDFVNCSTLPALNLASWREAS",,,,,,,formed sulfilimine crosslinks in collagen IV,at least 30 fold,preferentially formed hypochlorous acid
